From the supplement of paper PMC11451515

What was measured:
NOMO1 [1] = assay: AUC of viability dose-response curve (% viability x log10 dose units); higher = less sensitive; conditions: 48 h
Summary of the method: (§1)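 Library compounds in DMSO were applied for 48 h at 37°C at 11 threefold doses (47 μM to 0.79 nM) to medium-adapted leukemia cells in 1536-well plates holding 500 or 1000 cells/well. Luminescence from CellTiter-Glo One was normalised plate by plate against DMSO and cell-free wells. Area under the curve came from trapezoidal integration of a log-logistic fit, after scaling curves that rose above full viability and discarding those that failed quality control. The fit had four parameters and used log10 doses.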

P12-Ichikawa = assay: as above; conditions: 48 h
Summary of the method: as §1

SEM cells [2] = assay: as above; conditions: 48 h
Summary of the method: as §1

SEM cells [3] = assay: cell viability relative to DMSO control; higher = less cytotoxic; conditions: 48 h
Summary of the method: (§2)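 Viability values are per-plate percentages of DMSO wells, with background from cell-free wells. Library compounds in DMSO were pin-dosed, in an 11-point threefold series from 47 μM to 0.79 nM, onto NOMO1 or SEM (500 cells/well) or P12-Ichikawa (1000 cells/well) leukemia cells in 1536-well plates (5 μl). Those cells had been adapted for at least four passages in each medium, and CellTiter-Glo One luminescence was read after 48 h at 37°C.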

NOMO1 [4] = assay: as above; conditions: RPMI 5 mM glucose + 10% dialyzed FBS, 48 h
Summary of the method: as §2

[5] = RPMI 5 mM glucose + 10% dialyzed FBS
[6] = HPLM + 10% dialyzed FBS, 0.000781 µM
[7] = HPLM + 10% dialyzed FBS, 0.00234 µM
[8] = HPLM + 10% dialyzed FBS, 0.00702 µM
[9] = HPLM + 10% dialyzed FBS, 0.0211 µM
[10] = HPLM + 10% dialyzed FBS, 0.0632 µM
[11] = HPLM + 10% dialyzed FBS, 0.19 µM
[12] = HPLM + 10% dialyzed FBS, 0.569 µM
[13] = HPLM + 10% dialyzed FBS, 1.71 µM
[14] = HPLM + 10% dialyzed FBS, 5.12 µM
[15] = HPLM + 10% dialyzed FBS, 15.4 µM
[16] = HPLM + 10% dialyzed FBS, 46.1 µM

Row | Compound | AUC of viability dose-response curve (NOMO1 [1]; HPLM + 10% dialyzed FBS) | AUC of viability dose-response curve (NOMO1 [1]; RPMI 5 mM glucose + 10% FBS) | AUC of viability dose-response curve (NOMO1 [1]; [5]) | AUC of viability dose-response curve (P12-Ichikawa; HPLM + 10% dialyzed FBS) | AUC of viability dose-response curve (P12-Ichikawa; RPMI 5 mM glucose + 10% FBS) | AUC of viability dose-response curve (P12-Ichikawa; [5]) | AUC of viability dose-response curve (SEM cells [2]; HPLM + 10% dialyzed FBS) | AUC of viability dose-response curve (SEM cells [2]; RPMI 5 mM glucose + 10% FBS) | AUC of viability dose-response curve (SEM cells [2]; [5]) | cell viability (SEM cells [3]; [6]) [%] | cell viability (SEM cells [3]; [7]) [%] | cell viability (SEM cells [3]; [8]) [%] | cell viability (SEM cells [3]; [9]) [%] | cell viability (SEM cells [3]; [10]) [%] | cell viability (SEM cells [3]; [11]) [%] | cell viability (SEM cells [3]; [12]) [%] | cell viability (SEM cells [3]; [13]) [%] | cell viability (SEM cells [3]; [14]) [%] | cell viability (SEM cells [3]; [15]) [%] | cell viability (SEM cells [3]; [16]) [%] | further results
1 | CCC(=O)NCC[C@@H]1CCc2ccc3c(c21)CCO3 | 444 | 446 | 449 | 444 | 455 | 459 | 430 | 431 | 435 | – | – | – | – | – | – | – | – | – | – | – | –
2 | OC(CN1CCC(Cc2ccc(F)cc2)CC1)c1ccc(Cl)cc1 (stereo unspecified) | 456 | 455 | 448 | 449 | 451 | 451 | 440 | 451 | 461 | 106 | 118 | 108 | 115 | 116 | 118 | 117 | 122 | 124 | 130 | 129 | cell viability (SEM cells [3]; RPMI 5 mM glucose + 10% dialyzed FBS, 0.000781 µM): 116%; cell viability (SEM cells [3]; RPMI 5 mM glucose + 10% dialyzed FBS, 0.00234 µM): 125%; cell viability (SEM cells [3]; RPMI 5 mM glucose + 10% dialyzed FBS, 0.00702 µM): 115%; cell viability (SEM cells [3]; RPMI 5 mM glucose + 10% dialyzed FBS, 0.0211 µM): 129%; cell viability (SEM cells [3]; RPMI 5 mM glucose + 10% dialyzed FBS, 0.0632 µM): 126%; cell viability (SEM cells [3]; RPMI 5 mM glucose + 10% dialyzed FBS, 0.19 µM): 139%; cell viability (SEM cells [3]; RPMI 5 mM glucose + 10% dialyzed FBS, 0.569 µM): 140%; cell viability (SEM cells [3]; RPMI 5 mM glucose + 10% dialyzed FBS, 1.71 µM): 136%; cell viability (SEM cells [3]; RPMI 5 mM glucose + 10% dialyzed FBS, 5.12 µM): 125%; cell viability (SEM cells [3]; RPMI 5 mM glucose + 10% dialyzed FBS, 15.4 µM): 128%; cell viability (SEM cells [3]; RPMI 5 mM glucose + 10% dialyzed FBS, 46.1 µM): 136%
3 | CC(=O)N[C@H]1[C@H](O[C@@H]2c3ccc(c(Cl)c3)Oc3cc4cc(c3O[C@@H]3O[C@H](CO)[C@@H](O)[C@H](O)[C@H]3NC(=O)CCCCCCCC(C)C)Oc3ccc(cc3Cl)C[C@H]3NC(=O)[C@H](N)c5ccc(O)c(c5)Oc5cc(O)cc(c5)[C@H](NC3=O)C(=O)N[C@H]4C(=O)N[C@H]3C(=O)N[C@@H]2C(=O)N[C@@H](C(=O)O)c2cc(O)cc(O[C@H]4O[C@H](CO)[C@@H](O)[C@H](O)[C@@H]4O)c2-c2cc3ccc2O)O[C@H](CO)[C@@H](O)[C@@H]1O | 469 | 470 | 448 | 463 | 466 | 468 | 456 | 464 | 471 | 96.3 | 106 | 106 | 123 | 127 | 121 | 127 | 140 | 117 | 98.6 | 126 | cell viability (NOMO1 [4]; 0.000781 µM): 123%; cell viability (NOMO1 [4]; 0.00234 µM): 131%; cell viability (NOMO1 [4]; 0.00702 µM): 123%; cell viability (NOMO1 [4]; 0.0211 µM): 144%; cell viability (NOMO1 [4]; 0.0632 µM): 146%; cell viability (NOMO1 [4]; 0.19 µM): 151%; cell viability (NOMO1 [4]; 0.569 µM): 149%; cell viability (NOMO1 [4]; 1.71 µM): 162%; cell viability (NOMO1 [4]; 5.12 µM): 157%; cell viability (NOMO1 [4]; 15.4 µM): 157%; cell viability (NOMO1 [4]; 46.1 µM): 151%
4 | CC1COC2(CCN(CC2)C/3=N/C(=O)C4=CC(=CC(=C4S3)[N+]([O-])=O)C(F)(F)F)O1 (stereo unspecified) | 471 | 473 | 467 | 448 | 442 | 434 | 456 | 441 | 446 | 97.9 | 105 | 122 | 109 | 93.9 | 126 | 133 | 122 | 117 | 82.3 | 78.3 | –
